Structures can show the parent of a compound that is named as a salt. Where two headings read alike, the source gives them in different places.
Tests used:
TNF-α [1] = experiment: Inhibitory activity on TNF-α production from LPS-stimulated human PBMC (ELISA); format: cell-based
Protocol: (§1) Inhibitory activity on cytokine production from human PBMC (peripheral blood mononuclear cell)
(§2) PBMC fractions were isolated from human blood using a mono-poly resolving medium. The cells (PBMC) were cultured in 5% FCS (fetal calf serum)/RPMI1640 medium. Thereafter, the test compound was added to the final concentration of 0.001-10 µM, and LPS (lipopolysaccharide) was added to the final concentration of 10 µg/ml. After incubatioin for 24 hours, the supernatant was separated and freeze stocked at -80°C.
(§3) On the day of experiment, the supernatant was thawed and the production amount of cytokine was measured by ELISA. IL-6 was assayed using [(h)IL-6] human, ELISA system (Amersham); TNF-α was assayed using [(h)TNF-α] human, ELISA system (Amersham); GM-CSF was assayed using human GM-CSF immunoassay (R&D systems); and IL-8 was assayed using human IL-8 immunoassay (R&D systems). The determination method followed the method of each kit. The results are expressed in IC50.

IL-6 [2] = experiment: Inhibitory activity on in vivo IL-6 production by LPS stimulation; conditions: male ICR mice, LPS stimulation i.v., test compound 10 mg/kg p.o. at the same time, blood two hours later, relative to 0.5% CMC-Na group; for inhibition in vivo at 10 mg/kg: Mus musculus, po, 2 h, read-out: Inhibtion (%) of plasma IL-6 production (10 mg/kg, p.o.)
Protocol: Inhibitory activity on in vivo IL-6 production by LPS stimulation
LFS (0.3 mg/kg) was intravenously administered to male ICR mice (6-week-old) fasted for 24 hours. At the same time, the test compound suspended in 0.5% CMC-Na ( carboxymethylcellulose sodium) was orally administered at the dose of 10 mg/kg.
Two hours later, blood was taken from eyegrounds. The blood was centrifuged, and the plasma fraction was diluted and quantitatively assayed for IL-6 in blood by ELISA (Endogen EM-IL6). The inhibitory percentage of the group administered with the test compound was expressed relative to the amount of IL-6 in blood of the cup administered with 0.5% CMC-Na.

IL-6 [3] = experiment: Inhibitory activity on IL-6 production from LPS-stimulated human PBMC (ELISA); format: cell-based; conditions: 24 h
Protocol: as §1, §2, §3

IL-2 = experiment: Inhibitory activity on IL-2 production in concanavalin A-stimulated spleen cells; format: cell-based, Balb/c mice; conditions: Balb/c mouse spleen cells, 5 µg/ml concanavalin A, 24 hours, EIA
Protocol: (§4) Inhibitory activity on IL-2 and IFNγ production
(§5) The spleen cells obtained from 9-week-old Balb/c mice (Charles River Japan, Inc.) was suspended in RPMI-1640 medium supplemented with 10% FCS, at 4 × 10^6 cells/ml. The suspended cells were incubated in a 96 well plate (0.25 ml per well) in the presence of 5 µg/ml concanavalin A. The cells were cultured with or without addition of various concentrations of test compounds. After 24 hours' incubation, the culture broth was taken for assay of cytokine and preserved at -80°C. The concentrations of IL-2 and IFNγ in the culture broth were measured using an EIA kit (perSeptive Diagnostic) according to the attached protocol. The results are expressed in IC50.

GM-CSF = experiment: Inhibitory activity on GM-CSF production from LPS-stimulated human PBMC (immunoassay); format: cell-based; conditions: 24 h, read-out: GM-CSF IC50 (µM)
Protocol: as §1, §2, §3

Adjuvant arthritis (AIA) = experiment: Effects on rat adjuvant arthritis (hind limb edema); format: in vivo; conditions: Lewis rats, 10 mg/kg p.o. once a day for 28 days from day 0, hind limb edema at day 28, mean±standard error, **p < 0.01
Protocol: Effects on rat adjuvant arthritis
Lewis rats (5-week-old, Charles River Japan, Inc.) were used for the test. Adjuvant arthritis (AIA) was induced by injection (0.5 mg) of Mycobacterium butyricum (Difco) suspended in paraffin oil, from the root of the tail at day 0. The volume of the hind limb was measured with time after the injection of adjuvant. The test compound was suspended in 0.5% HPMC (hydroxypropylmethycellulose) and orally administered at the dose of 10 mg/kg once a day for 28 days from day 0. The suppression of edema of hind limb at day 28 was calculated as follows. Suppression (%) = 100 ×((AIA treated group-AIA control group))/((normal control group-AIA control group)) [formula]
The results are shown in mean±standard error and tested by Student-test. The result was significant when p value was less than 0.05.

IFNγ = experiment: Inhibitory activity on IFNγ production in concanavalin A-stimulated spleen cells; format: cell-based, Balb/c mice; conditions: Balb/c mouse spleen cells, 5 µg/ml concanavalin A, 24 hours, EIA
Protocol: as §4, §5

IL-8 = experiment: Inhibitory activity on IL-8 production from LPS-stimulated human PBMC (immunoassay); format: cell-based; conditions: 24 h, read-out: IL-8 IC50 (µM)
Protocol: as §1, §2, §3

TNF-α [4] = experiment: Inhibitory activity on in vivo TNF-α production by LPS stimulation; conditions: male ICR mice, 30 mg/kg p.o. 30 minutes before LPS 0.3 mg/kg i.v., blood one hour after LPS, relative to 0.5% CMC-Na group
Protocol: Inhibitory activity on in vivo TNF-α production by LPS stimulation
The test compound suspended in 0.5% CMC-Na (carboxymethylcellulose sodium) was orally administered at the dose of 30 mg/kg to male ICR mice (6-week-old) fasted for 24 hours. At 30 minutes after oral administration, LPS was intravenously administered at the dose of 0.3 mg/kg. At one hour after LSP administration, blood was taken from the heart. The TNF-α in plasma was assayed by ELISA (Genzyme). The suppression of TNF-α production of the group administered with test compounds was calculated by the following formula. Inhibition (%) =[1-(test compound administered group)/(0.5% CMC-Na administered group)]× 100 [formula]

[5] = Homo sapiens, PBMC, 24 h, human PBMC, LPS 10 µg/ml, incubation 24 hours, supernatant ELISA, read-out: TNF-α IC50
[6] = human PBMC, LPS 10 µg/ml, incubation 24 hours, supernatant ELISA, read-out: IL-6 IC50

Molecule `Cc1nnc2n1-c1ccccc1C(c1ccc(Cl)cc1)=NN2Cc1ccc[n+]([O-])c1` [Example 1, 3-[6-(4-Chlorophenyl)-1-methyl-4H-2,3,4,5,10b-pentaazabenz[e]azulen-4-ylmethyl]pyridine-1-oxide] has an IC50 (TNF-α [1]; [5]) of 0.1 µM, an IC50 (TNF-α [1]; human PBMC, LPS 10 µg/ml, incubation 24 hours, supernatant ELISA, read-out: TNF-α IC50) of 0.13 µM and an inhibition in vivo at 10 mg/kg (IL-6 [2]) of 73%.

`Cc1cc2c(s1)-n1c(C)nnc1N(Cc1ccc(-c3nnnn3C)cc1)N=C2c1ccccc1` [Example 16] was tested, and the IC50 (IL-6 [3]; read-out: IL-6 IC50 (µM), human PBMC, LPS 10 µg/ml, incubation 24 hours, supernatant ELISA) was 0.3 µM, the IC50 (TNF-α [1]; Homo sapiens, PBMC, 24 h, read-out: TNF-α IC50 (µM), human PBMC, LPS 10 µg/ml, incubation 24 hours, supernatant ELISA) was 0.06 µM and the “Inhibtion (%) of plasma IL-6 production (10 mg/kg, p.o.)” value (IL-6 [2]) was 84%.

`Cc1sc2c(c1C)C(c1ccc(Cl)cc1)=NN(Cc1ccc(C#N)cc1)c1nnc(C)n1-2` [Synthetic Example 115, 4-(4-Chlorophenyl)-6-(4-cyanobenzyl)-2,3,9-trimethyl-6H-5,6,7,8,9a-pentaazathieno[2,3-e]azulene] was tested, and the inhibition in vivo at 10 mg/kg (IL-6 [2]) was 75%.

Molecule `CCc1cc2c(s1)-n1c(C)nnc1N(Cc1ccncc1)N=C2c1ccc(Cl)cc1` [Synthetic Example 118, 4-(4-Chlorophenyl)-2-ethyl-9-methyl-6-(pyridin-4-ylmethyl)-6H-5,6,7,8,9a-pentaazathieno[2,3-e]azulene] has an inhibition in vivo at 10 mg/kg (IL-6 [2]) of 75%.

In the case of `Cc1cc2c(s1)-n1c(C)nnc1N(Cc1ccncc1)N=C2c1ccccc1` [Synthetic Example 121, 2,9-Dimethyl-4-phenyl-6-(pyridin-4-ylmethyl)-6H-5,6,7,8,9a-pentaazathieno[2,3-e]azulene], the inhibition in vivo at 10 mg/kg (IL-6 [2]) is reported as 91%.

`Cc1cc2c(s1)-n1c(C)nnc1N(Cc1ccc(C#N)cc1)N=C2c1ccccc1` [Synthetic Example 122, 6-(4-Cyanobenzyl)-2,9-dimethyl-4-phenyl-6H-5,6,7,8,9a-pentaazathieno[2,3-e]azulene] showed an inhibition in vivo at 10 mg/kg (IL-6 [2]) of 71%.

`Cc1sc2c(c1C)C(c1ccccc1)=NN(Cc1ccncc1)c1nnc(C)n1-2` [Synthetic Example 125, 2,3,9-Trimethyl-4-phenyl-6-(pyridin-4-ylmethyl)-6H-5,6,7,8,9a-pentaazathieno[2,3-e]azulene] was tested, and the inhibition in vivo at 10 mg/kg (IL-6 [2]) was 84%.

For `CCc1cc2c(s1)-n1c(C)nnc1N(Cc1ccncc1)N=C2c1ccccc1` [Synthetic Example 127, 2-Ethyl-9-methyl-4-phenyl-6-(pypidin-4-ylmethyl)-6H-5,6,7,8,9a-pentaazathieno[2,3-e]azulene], the “Inhibtion (%) of plasma IL-6 production (10 mg/kg, p.o.)” value (IL-6 [2]) was 83%.

Work on `Cc1nnc2n1-c1ccccc1C(c1ccc(N)cc1)=NN2Cc1ccc(Cl)cc1` [Synthetic Example 191, 4-[4-(4-Chlorobenzyl)-1-methyl-4H-2,3,4,5,10b-pentaazabenz[e]azulen-6-yl]phenylamine hydrochloride] yielded an IC50 (IL-6 [3]; [6]) of 0.001 µM, an IC50 (TNF-α [1]; [5]) of 0.001 µM and an inhibition in vivo at 10 mg/kg (IL-6 [2]) of 62%.

For `Cc1nnc2n1-c1ccccc1C(c1ccc(N)cc1)=NN2Cc1ccc(C#N)cc1` [Synthetic Example 192, 4-[4-(4-Cyanobenzyl)-1-methyl-4H-2,3,4,5,10b-pentaazabenz[e]azulen-6-yl]phenylamine hydrochloride], the IC50 (IL-6 [3]; [6]) was 0.03 µM, the IC50 (TNF-α [1]; [5]) was 0.02 µM and the inhibition in vivo at 10 mg/kg (IL-6 [2]) was 67%.

Molecule `Cc1nnc2n1-c1ccccc1C(c1ccc(N)cc1)=NN2Cc1ccc([N+](=O)[O-])cc1` [Synthetic Example 193, 4-[1-Methyl-4-(4-nitrobenzyl)-4H-2,3,4,5,10b-pentaazabenz[e]azulen-6-yl]phenylamine hydrochloride] has an IC50 (IL-6 [3]; [6]) of less than 0.001 µM, an IC50 (TNF-α [1]; [5]) of 0.001 µM and an inhibition in vivo at 10 mg/kg (IL-6 [2]) of 67%.

With `Cc1nnc2n1-c1ccccc1C(c1ccc(Cl)cc1)=NN2Cc1cccnc1` [compound 19] the IC50 (IL-2) was 240 nM, the IC50 (GM-CSF) was 0.05 µM and the “Suppression (%) of edema” value (Adjuvant arthritis (AIA)) was 72.7±3.3** %. For the same molecule, the IC50 (IFNγ) was 120 nM, the IC50 (IL-8) was 0.26 µM and the “Inhibition (%) of plasma TNF-α production (30 mg/kg, p.o.)” value (TNF-α [4]) was 51%.
